Experimental data reported in patent US20070134261A1, “Effectors of innate immunity” (priority 2001, published 2007).
In brackets after ≈: the same amount, converted by molar mass. Like-named read-outs stand apart in the source and are kept apart here. Residues, ends and D or L forms follow the SMILES beside them. No end group written: not given here.

Legend:
[1] = tested on: human PBMC; test: TLR agonist / cytokine induced cytokine secretion by PBMC (ELISA, multiplex bead immunoassay); assay type: cell-based
Procedure: All assays were performed in triplicate.

[2] = tested on: human bronchial epithelial cells (HBE); test: LDH release assay (Cytotoxicity Detection Kit); assay type: cell-based; details: 100 μg/ml, 24 hours; no peptide control 1.0 ± 0.05
Procedure: (§1) The potential toxicity of the peptides was measured in two ways. First, the Cytotoxicity Detection Kit (Roche) (Lactate dehydrogenase-LDH) Assay was used. It is a colorimetric assay for the quantification of cell death and cell lysis, based on the measurement of LDH activity released from the cytosol of damaged cells into the supernatant. LDH is a stable cytoplasmic enzyme present in all cells and it is released into the cell culture supernatant upon damage of the plasma membrane. An increase in the amount of dead or plasma membrane-damaged cells results in an increase of the LDH enzyme activity in the culture supernatant as measured with an ELISA plate reader, OD490 nm (the amount of color formed in the assay is proportional to the number of lysed cells). In this assay, human bronchial epithelial cells (I6HBEo14, HBE) cells were incubated with 100 μg of peptide for 24 hours, the supernatant removed and tested for LDH. The other assay used to measure toxicity of the cationic peptides was the WST-1 assay (Roche). This assay is a colorimetric assay for the quantification of cell proliferation and cell viability, based on the cleavage of the tetrazolium salt WST-1 by mitochondrial dehydrogenases in viable cells (a non-radioactive alternative to the [^3H]-thymidine incorporation assay). In this assay, HBE cells were incubated with 100 μg of peptide for 24 hours, and then 10 μl/well Cell Proliferation Reagent WST-1 was added. The cells are incubated with the reagent and the plate is then measured with an ELISA plate reader, OD490 nm.

[3] = tested on: HBE cells; test: WST-1 assay (cell viability); assay type: cell-based, human
Procedure: as §1

[4] = assay type: cell-based
[5] = tested on: RAW 264.7 mouse macrophage cells; assay type: cell-based; details: Peptide 20 μg/ml; 100 ng/ml E. coli 0111:B4 LPS, 6 h
[6] = tested on: A549 human epithelial cells; test: Induction of chemokines (IL-8, MCP-1) in A549 cells (ELISA); assay type: cell-based; details: peptide 10 ug/ml, 24 hr
Procedure: The murine macrophage cell line RAW 264.7, THP-1 cells (human monocytes), a human epithelial cell line (A549), human bronchial epithelial cells (16HBEo14), and whole human blood were used. HBE cells were grown in MEM with Earle's. THP-1 cells were grown and maintained in RPMI 1640 medium. The RAW and A549 cell lines were maintained in DMEM supplemented with 10% fetal calf serum. […] DMEM was aspirated from cells grown overnight and replaced with fresh medium. After incubation of the cells with peptide, the release of chemokines into the culture supernatant was determined by ELISA (R&D Systems, Minneapolis, Minn.).

[7] = tested on: A549 epithelial cells; test: Human Operon arrays (PRHU04-S1) of A549 cells treated with peptide alone (Tables 31-37, 53); details: peptide 50 μg/ml, 4 h, A549 cells
[8] = Escherichia coli, overnight, 96-well plate
[9] = Staphylococcus aureus, overnight, 96-well plate
[10] = Citobacter rhodensis, overnight, 96-well plate
[11] = Enterohaemorrhagic E. coli, overnight, 96-well plate
[12] = Pseudomonas aeruginosa, overnight, 96-well plate
[13] = Salmonella enteritidis ssp. typhimurium, overnight, 96-well plate

| Compound | LDH Release (OD490 nm) [2] [OD490 nm] | OD490 nm (WST-1 cell viability) [3] [OD490 nm] | MIC, C. rhod. ([4]; 24 h) [µg/mL] | MIC, E. coli ([4]; 24 h) [µg/mL] | MIC, EHEC ([4]; 24 h) [µg/mL] | MIC, S. aureus ([4]; 24 h) [µg/mL] | MIC, S. typhim. ([4]; 24 h) [µg/mL] | MIC, P. aerug. ([4]; 24 h) [µg/mL] | further results |
| --- | --- | --- | --- | --- | --- | --- | --- | --- | --- |
| 5′-TCATGACGTTCCTGACGTT-3′ (chemistry not given here) [CpG, reference compound] | – | – | – | – | – | – | – | – | IL-6, Ave pg/ml ([1]; 4 hr, CpG −SEQ ID NO: 1): <7 pg/mL; IL-8, Ave pg/ml ([1]; 4 hr, CpG −SEQ ID NO: 1): 20 pg/mL; TNF-α, Ave pg/ml ([1]; 4 hr, CpG −SEQ ID NO: 1): 28 pg/mL; IL-6, Ave pg/ml ([1]; 24 hr, CpG −SEQ ID NO: 1): 66 pg/mL; IL-8, Ave pg/ml ([1]; 24 hr, CpG −SEQ ID NO: 1): 339 pg/mL; TNF-α, Ave pg/ml ([1]; 24 hr, CpG −SEQ ID NO: 1): 28 pg/mL |
| CC[C@H](C)[C@H](NC(=O)CNC(=O)[C@H](CCCNC(=N)N)NC(=O)[C@H](CCSC)NC(=O)[C@H](C)NC(=O)[C@@H](NC(=O)[C@H](CCCNC(=N)N)NC(=O)[C@H](CCCCN)NC(=O)[C@@H](NC(=O)[C@H](CS)NC(=O)[C@@H](NC(=O)[C@@H](N)CCCNC(=N)N)[C@@H](C)O)C(C)C)C(C)C)C(=O)N[C@H](C(=O)N[C@@H](CCCNC(=N)N)C(=O)N[C@@H](CCCCN)C(=O)N[C@@H](CCCNC(=N)N)C(=O)N[C@@H](CS)C(=O)N[C@@H](CCCNC(=N)N)C(=O)O)[C@@H](C)CC [SEQ ID NO: 33] (H-RTCVKRVAMRGIIRKRCR-OH; N-terminus and C-terminus assumed) | 1.03 ± 0.05 | 1.75 ± 0.21 | 64 (≈ 29.1 µM) | 16 (≈ 7.26 µM) | 8 (≈ 3.63 µM) | 32 (≈ 14.5 µM) | 16 (≈ 7.26 µM) | – | Inhibition of TNF-α [5]: 62.1 ± 0.08%; IL-8 [6]: 0.328 ng/mL |
| ELPLKRGRVPVE [SEQ ID NO: 16] | 0.91 ± 0.04 | 1.39 ± 0.26 | – | – | – | – | – | – | ID#:ctrl intensity ratio, M14565 cytochrome P450 [7]: 10.1 |
| IL-1β | – | – | – | – | – | – | – | – | IL-6, Ave pg/ml ([1]; 4 hr, IL-1β −SEQ ID NO: 1): 39 pg/mL; IL-8, Ave pg/ml ([1]; 4 hr, IL-1β −SEQ ID NO: 1): 124 pg/mL; TNF-α, Ave pg/ml ([1]; 4 hr, IL-1β −SEQ ID NO: 1): 97 pg/mL; IL-6, Ave pg/ml ([1]; 24 hr, IL-1β −SEQ ID NO: 1): 645 pg/mL; IL-8, Ave pg/ml ([1]; 24 hr, IL-1β −SEQ ID NO: 1): 3034 pg/mL; TNF-α, Ave pg/ml ([1]; 24 hr, IL-1β −SEQ ID NO: 1): 20 pg/mL |
| KKSPIAPAIPWSR (Cationic peptide) [SEQ ID NO: 8, Formula A cationic peptide] | – | – | – | – | – | – | – | – | MIC, E. coli [4, 8]: >; MIC, S. aureus [4, 9]: >; Inhibition of TNF-α [5]: 39.3 ± 1.9% |
| KWKHALMKAHMLWHMIFHTALKPISS [SEQ ID NO: 52] | – | – | 2 | 8 | 2 | – | 8 | 32 | MIC, S. aureus [4, 9]: >; IL-8 [6]: 0.207 ng/mL |
| KWKKWAHSPRKVLTRIFHTALKPISS [SEQ ID NO: 50] | – | – | 16 | 8 | 8 | – | 16 | 16 | MIC, S. aureus [4, 9]: >; IL-8 [6]: 0.141 ng/mL |
| KWKRGAHRFMKFLSTIFHTALKPISS [SEQ ID NO: 49] | – | – | 4 | 4 | 4 | – | 8 | 16 | MIC, S. aureus [4, 9]: >; Inhibition of TNF-α [5]: 86.9 ± 0.69%; IL-8 [6]: 0.301 ng/mL |
| KWKSLVMMFKKPARRIFHTALKPISS [SEQ ID NO: 51] | – | – | – | – | – | – | – | – | MIC, C. rhod. [4, 10]: 4 µg/mL; MIC, EHEC [4, 11]: 8 µg/mL; MIC, E. coli [4, 8]: 4 µg/mL; MIC, P. aerug. [4, 12]: 8 µg/mL; MIC, S. typhim. [4, 13]: 32 µg/mL; MIC, S. aureus [4, 9]: >; IL-8 [6]: 0.255 ng/mL |
| KWKSYAHTIMSPVRLVFHTALKPISS [SEQ ID NO: 54] | – | – | – | – | – | – | – | – | MIC, C. rhod. [4, 10]: 16 µg/mL; MIC, EHEC [4, 11]: 32 µg/mL; MIC, E. coli [4, 8]: 64 µg/mL; MIC, P. aerug. [4, 12]: 16 µg/mL; MIC, S. typhim. [4, 13]: 64 µg/mL; MIC, S. aureus [4, 9]: >; Inhibition of TNF-α [5]: 64 ± 0.73%; IL-8 [6]: 0.133 ng/mL |
| PAM3 | – | – | – | – | – | – | – | – | IL-1β, Ave pg/ml ([1]; 4 hr, PAM3 −SEQ ID NO: 1): 34 pg/mL; IL-6, Ave pg/ml ([1]; 4 hr, PAM3 −SEQ ID NO: 1): 435 pg/mL; IL-8, Ave pg/ml ([1]; 4 hr, PAM3 −SEQ ID NO: 1): 738 pg/mL; TNF-α, Ave pg/ml ([1]; 4 hr, PAM3 −SEQ ID NO: 1): 830 pg/mL; IL-1β, Ave pg/ml ([1]; 24 hr, PAM3 −SEQ ID NO: 1): 512 pg/mL; IL-6, Ave pg/ml ([1]; 24 hr, PAM3 −SEQ ID NO: 1): 7734 pg/mL; IL-8, Ave pg/ml ([1]; 24 hr, PAM3 −SEQ ID NO: 1): 7620 pg/mL; TNF-α, Ave pg/ml ([1]; 24 hr, PAM3 −SEQ ID NO: 1): 2334 pg/mL |
| RAAFKWAWAWWRRK [SEQ ID NO: 23] | 1.26 ± 0.46 | 1.14 ± 0.24 | 4 | 4 | 4 | 8 | 16 | 8 | – |
| RAPYWPWAWARPRK [SEQ ID NO: 21] | 1.06 ± 0.04 | 1.28 ± 0.07 | 32 | 64 | 32 | 64 | 64 | 96 | – |
| RKMVKVDVRGIMIRKDRR [SEQ ID NO: 29] | 0.99 ± 0.02 | 1.75 ± 0.09 | 32 | 2 | 4 | – | 16 | – | – |
| RPAWKYWWPWPWPRRK [SEQ ID NO: 22] | 1.29 ± 0.12 | 1.33 ± 0.07 | 4 | 8 | 4 | 12 | 8 | 24 | ID#:ctrl intensity ratio, X65962 cytochrome P-450 [7]: 5.1 |
| RPRYPWWPWWPYRPRK [SEQ ID NO: 19] | 1.08 ± 0.02 | 1.42 ± 0.15 | 4 | 8 | 4 | 16 | 64 | 16 | ID#:ctrl intensity ratio, X65962 cytochrome P-450 [7]: 3.8 |
| RRAWWKAWWARRK [SEQ ID NO: 20] | 1.05 ± 0.03 | 1.61 ± 0.21 | 16 | 8 | 8 | 8 | 8 | 8 | – |
| RRDCRRVMVRGIDIKAK [SEQ ID NO: 36] | 0.85 ± 0.04 | 1.58 ± 0.05 | 32 | 32 | 16 | – | 32 | – | – |
| RREAIRRVAMRGRDMKRMRR [SEQ ID NO: 31] | 0.98 ± 0.03 | 1.84 ± 0.06 | – | – | 64 | – | – | 128 | – |
| RRRWKWAWPRRK [SEQ ID NO: 24] | 1.05 ± 0.01 | 1.27 ± 0.16 | 16 | 16 | 4 | 16 | 16 | 4 | – |
| TNF-α | – | – | – | – | – | – | – | – | IL-1β, Ave pg/ml ([1]; 4 hr, TNF-α −SEQ ID NO: 1): 74 pg/mL; IL-8, Ave pg/ml ([1]; 4 hr, TNF-α −SEQ ID NO: 1): 54 pg/mL; IL-1β, Ave pg/ml ([1]; 24 hr, TNF-α −SEQ ID NO: 1): 94 pg/mL; IL-6, Ave pg/ml ([1]; 24 hr, TNF-α −SEQ ID NO: 1): 9 pg/mL; IL-8, Ave pg/ml ([1]; 24 hr, TNF-α −SEQ ID NO: 1): 4410 pg/mL |
